What was measured:
Format in all cases: in vivo, mouse
[1] = system: GST-RANKL-administered 7-week-old female C57BL/6N mice; experiment: Evaluation of an osteoporosis therapeutic agent (risedronate) with GST-RANKL-administered mice
Experimental: GST-RANKL (426 nmol) was intraperitoneally administered 3 times to groups of 7-week-old female C57BL/6N mice (5 to 6 individuals each) every 24 hours. An osteoporosis therapeutic agent (risedronate) was subcutaneously administered at 0.01 mg/kg every 24 hours from 3 days before GST-RANKL administration. Administration of the agent was continued to the end of the experimentation every 24 hours. The serum, femur, and tibia were collected from each mouse 1.5 hours after the 3rd administration of GST-RANKL. Bone resorption parameters (calcium, CTx, and TRAP-5b) and osteogenesis parameters (osteocalcin and ALP) in the serum were measured. The femur bone density was determined with the use of pQCT and micro CT. Measurement values were compared with those for a control group by the Dunnett method for testing.

[2] = system: GST-RANKL-administered 7-week-old female C57BL/6 mice; experiment: Drug evaluation with bisphosphonate (risedronate) in GST-RANKL mice; settings: for femur bone density decrease vs PBS group: RANKL alone
Experimental: Risedronate was separately administered via a subcutaneous route to groups of 7-week-old female C57BL/6 mice at doses of 3, 10, and 30 μg/kg every 24 hours from the day before GST-RANKL administration to the end of the experimentation. The femur and serum were collected from each mouse 1.5 hours after the 3rd administration of GST-RANKL. Measurement of TRAP-5b, calcium (Ca), and alkaline phosphatase (ALP) was carried out. Each femur was subjected to bone density measurement and image analysis with the use of pQCT.

[3] = system: GST-RANKL-administered 7-week-old female C57BL/6 mice; experiment: Comparison of a plurality of bisphosphonates in GST-RANKL mice; settings: for femur bone density decrease vs PBS group: GST-RANKL 1 mg/kg 3 times
Experimental: GST-RANKL was intraperitoneally administered 3 times at 1 mg/kg every 24 hours. The femur, tibia, and serum were collected from each mouse 1.5 hours after the 3rd GST-RANKL administration. Measurement of TRAP-5b, calcium (Ca), and alkaline phosphatase (ALP) in the serum was carried out. Each femur was subjected to bone density measurement with pQCT and image analysis with micro CT.

female C57BL/6N mice = experiment: Producing OVX mice in a short period of time (GST-RANKL plus ovariectomy)
Experimental: 7-week-old female C57BL/6N mice were reared for 25 days. Then, GST-RANKL was intraperitoneally administered twice thereto at 1 mg/kg every 24 hours. Ovariectomy was carried out 24 hours after the 2nd administration. Further, the femur, tibia, and serum were collected from each mouse 24 hours after ovariectomy. The obtained samples were compared with the samples obtained from a group that was reared for 4 weeks after ovariectomy. In addition, PBS was administered to control groups for comparison with GST-RANKL administration groups. The PBS administration groups were subjected to sham operation (Sham) for comparison with the groups subjected to ovariectomy.
Regarding bone metabolism markers, TRAP-5b, calcium (Ca), and alkaline phosphatase (ALP) in the serum were measured. Each femur was subjected to bone density measurement with pQCT and image analysis with micro CT. After the initiation of rearing, the date of implementation of OVX or sham operation was expressed as “day X.”

[4] = system: 7-week-old female C57BL/6N mice; experiment: Bone healing after GST-RANKL administration
Experimental: GST-RANKL was intraperitoneally administered twice to groups of 7-week-old female C57BL/6N mice at 1 mg/kg every 24 hours. The time point 24 hours after the 2nd administration was designated as “week 0.” The serum and femur were collected from each mouse separately at weeks 0, 1, 4, 6, and 8 and compared with those collected from mice subjected to PBS administration in a similar manner. Regarding bone metabolism markers, TRAP-5b, calcium (Ca), and alkaline phosphatase (ALP) in the serum were measured. Each femur was subjected to bone density measurement with pQCT and image analysis with micro CT.
The bone density was measured at points 0.6 mm, 0.8 mm, 1.0 mm from the distal growth plate on the proximal side of the femur with the use of pQCT.

[5] = system: GST-RANKL-administered 7-week-old female C57BL/6N mice; experiment: Evaluation of a bone mass increase with low-dose PTH in GST-RANKL mice; settings: GST-RANKL 1 mg/kg i.p. 2 times
Experimental: GST-RANKL was intraperitoneally administered 2 times to groups of 7-week-old female C57BL/6N mice at 1 mg/kg every 24 hours. PTH was subcutaneously administered thereto at 40 or 80 μg/kg from 24 hours after the 2nd administration every 24 hours for 10 consecutive days. In addition, PBS was administered to a group serving as the control group for the GST-RANKL and PTH administration groups for comparison. The serum and femur were collected from each mouse 24 hours after the end of administration for 10 days.
The serum collected from each mouse was subjected to measurement of serum bone resorption markers (Ca and TRAP-5b) and an osteogenesis marker (ALP). Each femur was subjected to measurement of the total bone density, the cortical bone density, the cortical bone thickness, the cortical bone mineral content, and the cortical bone density in the diaphysis with pQCT at points 0.6, 0.8, and 1.0 mm […] the distal growth plate on the proximal side. In addition, image analysis was carried out with micro CT.

[6] = system: 12-week-old male and female C57BL/6N mice; experiment: GST-RANKL administration to 12-week-old mice
Experimental: GST-RANKL was intraperitoneally administered 3 times to 12-week-old male and female C57BL/6N mice at 1 mg/kg every 24 hours. The serum and femur were collected from each mouse 1.5 hours after the 3rd administration. The serum collected from each mouse was subjected to measurement of serum bone resorption markers (Ca and TRAP-5b) and an osteogenesis marker (ALP). Each femur was subjected to bone density measurement by dual energy X-ray absorptiometry (DEXA) and image analysis with micro CT.

[7] = GST-RANKL 426 nmol i.p. 3 times
[8] = 12-week-old male, no significant difference

GST-RANKL: fused protein of Glutathione S-transferase with human RANKL residues 140-317, expressed in Escherichia coli, 47.0 kDa
serum alkaline phosphatase concentration vs control ([1]; GST-RANKL 426 nmol): did not change | serum osteocalcin concentration vs control ([1]; GST-RANKL 426 nmol): did not change | serum CTx concentration, fold as high as control [1, 7]: approximately 1.4 fold | serum TRAP-5b concentration, fold as high as control [1, 7]: approximately 1.5 fold | femur bone density decrease vs control ([1]; GST-RANKL 426 nmol, at 0.6 mm, 0.8 mm and 1.0 mm): approximately 20% | serum Ca concentration ([2]; GST-RANKL 3 times): did not obviously vary | serum TRAP-5b concentration, fold as high ([2]; RANKL administration): approximately 2 fold | femur bone density decrease vs PBS group ([2]; 0.6 mm): 27% | femur bone density decrease vs PBS group ([2]; 0.8 mm): 35% | femur bone density decrease vs PBS group ([2]; 1.0 mm): 35% | femur bone density decrease vs PBS group ([3]; 0.6 mm): 7% | femur bone density decrease vs PBS group ([3]; 0.8 mm): 13% | femur bone density decrease vs PBS group ([3]; 1.0 mm): 18% | serum TRAP-5b concentration increase ([3]; GST-RANKL 1 mg/kg i.p. 3 times, no significant difference): approximately 40% | serum ALP concentration increase vs PBS+Sham (day 27) group (female C57BL/6N mice; GST-RANKL administration OVX (day 27) group): approximately 40% | femur bone density decrease vs PBS+Sham (day 27) (female C57BL/6N mice; GST-RANKL+OVX (day 27), 0.6 mm): approximately 4% | femur bone density decrease vs PBS+Sham (day 27) (female C57BL/6N mice; GST-RANKL+OVX (day 27), 0.8 mm): approximately 13% | femur bone density decrease vs PBS+Sham (day 27) (female C57BL/6N mice; GST-RANKL+OVX (day 27), 1.0 mm): approximately 15% | femur bone density decrease vs PBS+Sham (day 27) (female C57BL/6N mice; GST-RANKL+Sham (day 27), 0.6 mm): approximately 7% | femur bone density decrease vs PBS+Sham (day 27) (female C57BL/6N mice; GST-RANKL+Sham (day 27), 0.8 mm): approximately 14% | femur bone density decrease vs PBS+Sham (day 27) (female C57BL/6N mice; GST-RANKL+Sham (day 27), 1.0 mm): approximately 16% | serum TRAP-5b concentration, fold as high as PBS+Sham (day 27) group (female C57BL/6N mice; every GST-RANKL administration group, 1 mg/kg i.p. twice, no significant difference): approximately 1.8 fold | serum Ca concentration ([4]; 1 mg/kg i.p. twice, weeks 0 to 8): no significant difference | femur bone density decreased to, vs PBS group ([4]; 0.6 mm, week 0): 5% | femur bone density decreased to, vs PBS group ([4]; 0.6 mm, week 1): 7% | femur bone density decreased to, vs PBS group ([4]; 0.6 mm, week 4): 9% | femur bone density decreased to, vs PBS group ([4]; 0.8 mm, week 0): 10% | femur bone density decreased to, vs PBS group ([4]; 0.8 mm, week 1): 11% | femur bone density decreased to, vs PBS group ([4]; 0.8 mm, week 4): 15% | femur bone density decreased to, vs PBS group ([4]; 1.0 mm, week 0): 16% | femur bone density decreased to, vs PBS group ([4]; 1.0 mm, week 1): 13% | femur bone density decreased to, vs PBS group ([4]; 1.0 mm, week 4): 11% | serum TRAP-5b concentration, fold as high as PBS group ([4]; 24 hours after RANKL administration (0 week)): approximately 3 fold | femur bone density vs PBS group ([4]; week 6): returned to a level comparable to that for the PBS administration group | serum ALP concentration, fold as high ([4]; weeks 0 and 1): approximately 1.4 fold | cortical bone density in the diaphysis, decrease vs PBS control [5]: 3% | total bone density decrease (DEXA) vs control ([6]; 12-week-old female): 6% | serum ALP concentration vs PBS group ([6]; 12-week-old female, no significant difference): tended to increase | serum TRAP-5b concentration vs PBS group ([6]; 12-week-old female, p<0.01): significantly increased | serum Ca concentration vs PBS group ([6]; 12-week-old female, p<0.05): significantly increased | total bone density decrease (DEXA) vs control ([6]; 12-week-old male): 8% | serum TRAP-5b concentration vs PBS group ([6]; 12-week-old male, 1 mg/kg i.p. 3 times, p<0.05): significantly increased | serum ALP concentration vs PBS group [6, 8]: tended to increase | serum Ca concentration vs PBS group [6, 8]: tended to increase

From patent US8334261B2, “Osteopenia animal model” (Oriental Yeast Co., Ltd., priority 2006, dated 2012)
